Data from the Kinase Knowledgebase extract (Sharma et al. 2016).

Legend:
PIK3CA (human) = PIK3CA (human) (UniProt P42336); assay: Inhibition of PIK3CA Kinase Activity
PIK3CG (human) = PIK3CG (human) (UniProt P48736); assay: Inhibition of PIK3CG Kinase Activity
PIK3CD (Human) = PIK3CD (Human) (UniProt O00329); assay: Inhibition of PIK3CD Kinase Activity
PIK3CB (Human) = PIK3CB (Human) (UniProt P42338); assay: Inhibition of PIK3CB Kinase Activity
PIK3CB (Human), sequence (P42338 whole entry, looked up): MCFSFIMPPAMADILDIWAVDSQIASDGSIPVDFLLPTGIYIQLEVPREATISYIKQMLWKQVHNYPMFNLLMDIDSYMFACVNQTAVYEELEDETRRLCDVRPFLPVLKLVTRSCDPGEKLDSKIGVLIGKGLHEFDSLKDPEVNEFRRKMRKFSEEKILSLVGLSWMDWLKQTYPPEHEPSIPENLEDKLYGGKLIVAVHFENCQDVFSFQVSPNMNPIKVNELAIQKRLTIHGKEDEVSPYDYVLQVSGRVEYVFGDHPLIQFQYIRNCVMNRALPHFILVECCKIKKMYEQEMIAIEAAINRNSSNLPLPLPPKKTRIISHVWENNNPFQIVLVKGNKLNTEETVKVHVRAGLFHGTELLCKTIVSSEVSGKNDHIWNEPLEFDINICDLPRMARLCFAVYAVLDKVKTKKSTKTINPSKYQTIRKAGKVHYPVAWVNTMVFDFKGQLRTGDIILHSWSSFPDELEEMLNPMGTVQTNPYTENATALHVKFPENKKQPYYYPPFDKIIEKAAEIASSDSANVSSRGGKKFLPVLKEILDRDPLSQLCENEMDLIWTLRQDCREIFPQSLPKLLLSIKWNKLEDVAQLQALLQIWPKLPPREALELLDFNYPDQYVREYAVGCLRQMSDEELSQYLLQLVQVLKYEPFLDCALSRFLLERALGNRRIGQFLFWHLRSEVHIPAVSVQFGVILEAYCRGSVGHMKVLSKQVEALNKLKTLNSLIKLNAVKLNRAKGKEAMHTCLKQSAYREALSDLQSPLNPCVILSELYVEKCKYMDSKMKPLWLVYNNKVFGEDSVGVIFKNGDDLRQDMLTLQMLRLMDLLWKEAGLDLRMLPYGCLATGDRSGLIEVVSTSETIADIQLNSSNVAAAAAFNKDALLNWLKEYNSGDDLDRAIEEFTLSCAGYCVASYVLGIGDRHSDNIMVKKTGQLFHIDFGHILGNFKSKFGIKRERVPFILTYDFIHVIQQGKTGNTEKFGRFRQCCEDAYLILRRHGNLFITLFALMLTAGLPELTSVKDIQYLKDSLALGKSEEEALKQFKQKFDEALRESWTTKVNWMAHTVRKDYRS

PIK3CA (human), sequence (P42336 whole entry, looked up): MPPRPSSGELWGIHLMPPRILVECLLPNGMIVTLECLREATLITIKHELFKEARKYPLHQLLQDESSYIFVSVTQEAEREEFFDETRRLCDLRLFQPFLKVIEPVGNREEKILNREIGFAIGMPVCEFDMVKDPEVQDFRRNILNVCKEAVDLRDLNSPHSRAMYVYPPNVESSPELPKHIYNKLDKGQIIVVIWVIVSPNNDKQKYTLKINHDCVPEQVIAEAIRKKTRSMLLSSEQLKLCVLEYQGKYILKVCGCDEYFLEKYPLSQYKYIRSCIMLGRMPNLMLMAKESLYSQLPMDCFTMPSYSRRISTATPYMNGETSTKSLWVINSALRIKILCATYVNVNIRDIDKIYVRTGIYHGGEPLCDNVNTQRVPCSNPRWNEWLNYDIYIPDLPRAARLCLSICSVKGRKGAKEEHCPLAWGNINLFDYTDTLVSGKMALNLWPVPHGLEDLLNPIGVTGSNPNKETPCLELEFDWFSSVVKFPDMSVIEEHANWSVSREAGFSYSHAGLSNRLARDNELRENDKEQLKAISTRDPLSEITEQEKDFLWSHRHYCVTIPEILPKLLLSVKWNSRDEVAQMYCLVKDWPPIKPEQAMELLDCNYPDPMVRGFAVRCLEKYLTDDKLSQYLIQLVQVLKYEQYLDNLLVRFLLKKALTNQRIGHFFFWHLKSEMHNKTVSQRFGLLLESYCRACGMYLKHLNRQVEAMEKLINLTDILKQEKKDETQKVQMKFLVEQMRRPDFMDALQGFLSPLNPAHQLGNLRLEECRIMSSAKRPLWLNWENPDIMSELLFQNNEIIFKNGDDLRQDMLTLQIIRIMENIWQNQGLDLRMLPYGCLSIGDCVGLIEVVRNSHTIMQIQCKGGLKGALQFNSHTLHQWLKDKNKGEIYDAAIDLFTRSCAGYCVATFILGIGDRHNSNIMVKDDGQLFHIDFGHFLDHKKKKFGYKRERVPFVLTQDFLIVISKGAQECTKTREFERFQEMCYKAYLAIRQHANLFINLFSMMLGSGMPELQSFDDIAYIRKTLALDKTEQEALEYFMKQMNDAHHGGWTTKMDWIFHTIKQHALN
PIK3CG (human), sequence (P48736 whole entry, looked up): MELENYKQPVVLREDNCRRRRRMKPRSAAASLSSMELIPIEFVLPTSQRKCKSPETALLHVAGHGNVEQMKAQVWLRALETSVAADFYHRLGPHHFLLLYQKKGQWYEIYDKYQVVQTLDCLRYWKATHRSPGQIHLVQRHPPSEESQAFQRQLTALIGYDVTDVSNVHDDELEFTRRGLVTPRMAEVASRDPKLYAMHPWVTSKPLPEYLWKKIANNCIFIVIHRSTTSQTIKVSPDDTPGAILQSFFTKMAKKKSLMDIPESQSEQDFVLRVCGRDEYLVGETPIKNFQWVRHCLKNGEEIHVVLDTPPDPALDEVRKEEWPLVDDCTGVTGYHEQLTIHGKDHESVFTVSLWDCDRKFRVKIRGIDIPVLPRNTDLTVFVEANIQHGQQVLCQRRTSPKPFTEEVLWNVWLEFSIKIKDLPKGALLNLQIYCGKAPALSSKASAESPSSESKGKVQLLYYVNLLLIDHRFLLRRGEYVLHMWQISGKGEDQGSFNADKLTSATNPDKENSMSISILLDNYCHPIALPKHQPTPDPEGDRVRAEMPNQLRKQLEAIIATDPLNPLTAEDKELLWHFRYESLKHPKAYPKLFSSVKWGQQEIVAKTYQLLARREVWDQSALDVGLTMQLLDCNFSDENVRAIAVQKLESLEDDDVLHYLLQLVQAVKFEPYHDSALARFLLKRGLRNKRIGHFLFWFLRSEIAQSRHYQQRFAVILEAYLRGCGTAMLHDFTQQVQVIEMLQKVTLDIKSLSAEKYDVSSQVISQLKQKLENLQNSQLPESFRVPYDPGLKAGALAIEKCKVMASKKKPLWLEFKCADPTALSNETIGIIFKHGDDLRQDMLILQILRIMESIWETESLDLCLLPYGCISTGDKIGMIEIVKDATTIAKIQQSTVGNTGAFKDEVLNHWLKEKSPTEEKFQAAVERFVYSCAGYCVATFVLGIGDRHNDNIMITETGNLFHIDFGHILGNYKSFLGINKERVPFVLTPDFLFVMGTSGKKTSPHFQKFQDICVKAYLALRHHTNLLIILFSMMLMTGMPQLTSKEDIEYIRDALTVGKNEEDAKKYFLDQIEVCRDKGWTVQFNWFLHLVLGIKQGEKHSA
PIK3CD (Human), sequence (O00329 whole entry, looked up): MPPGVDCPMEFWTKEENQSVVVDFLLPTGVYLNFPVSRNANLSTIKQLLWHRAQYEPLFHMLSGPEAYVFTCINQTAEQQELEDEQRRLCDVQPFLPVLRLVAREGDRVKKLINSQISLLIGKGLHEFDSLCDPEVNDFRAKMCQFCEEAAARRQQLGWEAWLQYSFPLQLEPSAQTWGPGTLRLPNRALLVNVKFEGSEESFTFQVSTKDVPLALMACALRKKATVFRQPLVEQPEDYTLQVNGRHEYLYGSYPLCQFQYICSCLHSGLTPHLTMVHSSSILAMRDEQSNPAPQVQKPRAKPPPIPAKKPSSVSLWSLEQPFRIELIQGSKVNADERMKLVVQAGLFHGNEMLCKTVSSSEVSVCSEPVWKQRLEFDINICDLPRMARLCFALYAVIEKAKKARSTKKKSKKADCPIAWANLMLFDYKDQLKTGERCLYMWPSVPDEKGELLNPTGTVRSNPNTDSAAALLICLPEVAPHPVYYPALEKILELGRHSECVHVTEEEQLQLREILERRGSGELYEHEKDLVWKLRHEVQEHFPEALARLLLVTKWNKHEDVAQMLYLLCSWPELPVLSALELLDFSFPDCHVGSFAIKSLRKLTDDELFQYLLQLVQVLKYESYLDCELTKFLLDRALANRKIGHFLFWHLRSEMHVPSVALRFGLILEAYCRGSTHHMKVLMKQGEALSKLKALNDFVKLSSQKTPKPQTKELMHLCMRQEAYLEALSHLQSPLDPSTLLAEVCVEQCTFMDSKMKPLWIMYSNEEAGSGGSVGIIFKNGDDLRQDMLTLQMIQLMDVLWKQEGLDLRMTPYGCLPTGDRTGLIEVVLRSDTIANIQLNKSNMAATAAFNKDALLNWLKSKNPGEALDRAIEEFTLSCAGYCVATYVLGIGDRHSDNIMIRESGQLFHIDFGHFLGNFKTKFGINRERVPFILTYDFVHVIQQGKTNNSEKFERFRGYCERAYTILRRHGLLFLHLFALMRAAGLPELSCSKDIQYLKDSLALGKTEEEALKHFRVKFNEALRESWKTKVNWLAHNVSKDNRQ

IC50 (PIK3CA (human)) [nM]	IC50 (PIK3CG (human)) [nM]	IC50 (PIK3CD (Human)) [nM]	IC50 (PIK3CB (Human)) [nM]	Structure (SMILES)
> 2000	> 2000	50	> 2000	O=c1c2c(Cl)cccc2nc(CSc2ncnc3[nH]cnc23)n1-c1ccccc1-c1ccccc1
50	> 10000		50	Cc1cc(NCc2ccccc2)c2nc(N3CCOCC3)cc(=O)n2c1
20			20	Cc1cc(F)ccc1Oc1cccc2c(=O)cc(N3CCOCC3)[nH]c12

Structure (SMILES)	IC50 (PIK3CA (human)) [nM]	IC50 (PIK3CG (human)) [nM]	IC50 (PIK3CD (Human)) [nM]	IC50 (PIK3CB (Human)) [nM]
O=c1c(O)c(-c2ccc(O)c(O)c2)oc2cc(O)cc(O)c12	3800			
